Reference: patent US8710233B2 (Gruenenthal GmbH, priority 2005, dated 2014)
Like-named read-outs stand apart in the source and are kept apart here.

Tests used:
Assay type in all cases: cell-based
vanilloid receptor (VR1) = molecular target: T1, vanilloid receptor (VR1) (Homo sapiens, UniProt Q8NER1); test: FLIPR Ca2+ influx assay on CHO K1 cells transfected with the VR1 gene (pharmacological method II)
T1 construct: expressed in transfected cells; host or cells: CHO K1 cells (ECACC), stably transfected

VR1/TRPV1 receptor = VR1/TRPV1 receptor (Homo sapiens, UniProt Q8NER1); test: IC50 (human) after pH stimulus; settings: for inhibition at 1 µM: ne = no effect; for IC50: table 4
[1] = molecular target: T2, vanilloid receptor 1 (VR1/TRPV1) of the rat species (Rattus norvegicus, UniProt O35433); test: FLIPR Ca2+ influx assay on rat dorsal root ganglia cells (pharmacological method I)
T2 construct: The spinal column is removed from decapitated rats; from tissue; host or cells: primary cells dissociated from rat dorsal root ganglia
Text: I. Functional Investigation of the Vanilloid Receptor 1 (VR1/TRPV1 Receptor)
The agonistic or antagonistic action of the substances to be investigated on the vanilloid receptor 1 (VR1/TRPV1) of the rat species may be determined by the following assay. According to this assay, the influx of Ca^2+ through the receptor channel is quantified with the assistance of a Ca^2+-sensitive dye (type Fluo-4, Molecular Probes Europe BV, Leiden, Netherlands) in a Fluorescent Imaging Plate Reader (FLIPR, Molecular Devices, Sunnyvale, USA).
The spinal column is removed from decapitated rats and is placed directly in cold, i.e. located in an ice bath, HBSS buffer (Hank's buffered saline solution, Gibco Invitrogen GmbH, Karlsruhe, Germany) combined with 1 vol. % (percent by volume) of an AA solution (antibiotic/antimycotic solution, PAA, Pasching, Austria). The spinal column is cut open longitudinally and removed together with fasciae from the spinal canal. The dorsal root ganglia (DRGs) are then removed and in turn stored in cold HBSS buffer combined with 1 vol. % of an AA solution. The DRGs, from which all traces of blood and spinal nerves have been removed, are in each case transferred into 500 μL of cold collagenase type 2 (PAA, Pasching, Austria) and incubated for 35 minutes at 37° C. […] Once incubation is complete, the enzyme solution is carefully removed by pipette and the DRGs, which are left behind, are in each case combined with 500 μL of complete medium.
The DRGs are in each case repeatedly suspended, drawn by means of a syringe through […], no. 12 and no. 16 cannulas and transferred into 50 mL Falcon microtubes and each tube is made up to 15 mL with complete medium. The contents of each Falcon microtube are in each case filtered through a 70 μm Falcon filter insert and centrifuged for 10 minutes at 1200 revolutions and room temperature. The resultant pellet is in each case resuspended in 250 μL of complete medium and the cell count determined.
The number of cells in the suspension is adjusted to 3×10^5 per mL and a 150 μL portion of this suspension is in each case placed in a well of the cell culture plate which has been coated as described above.
The cells are then loaded with 2 μM Fluo-4 and 0.01 vol. % Pluronic F127 (Molecular Probes Europe BV, Leiden, Netherlands) in HBSS buffer (Hank's buffered saline solution, Gibco Invitrogen GmbH, Karlsruhe, Germany) for 30 min at 37° C., washed 3× with HBSS buffer and, after a further 15 minutes' incubation at room temperature, used for Ca^2+ measurement in the FLIPR assay. […] Quantification proceeds by measuring the highest fluorescence intensity (FC, fluorescence counts) over time.
The FLIPR protocol comprises 2 additions of substance. The compounds to be tested (10 μM) are firstly pipetted onto the cells and Ca^2+ influx is compared with the control (capsaicin 10 μM). This provides the percentage activation relative to the Ca^2+ signal after addition of 10 μM of capsaicin (CP). After 5 minutes' incubation, 100 nM of capsaicin are added and the influx of Ca^2+ is again determined.
Desensitising agonists and antagonists result in suppression of Ca^2+ influx. The percentage inhibition in comparison with the maximum achievable inhibition with 10 μM capsaicin is calculated.
Triplicate determinations (n═3) are performed and these are repeated in at least 3 independent experiments […].

[2] = table 4, capsaicin, read-out: Ki (human) Cap.
[3] = read-out: inhibition in percent, IC50 (human) after pH stimulus
[4] = table 4, capsaicin, read-out: Ki (rat) Cap.
[5] = Table 2, displacement of capsaicin (100 nM), Cheng-Prusoff, read-out: Ki (human)
[6] = Table 2, displacement of capsaicin (100 nM), Cheng-Prusoff, read-out: Ki (rat)
[7] = Ki (rat) Cap., table 4, capsaicin

T1 sequence (Q8NER1 whole entry): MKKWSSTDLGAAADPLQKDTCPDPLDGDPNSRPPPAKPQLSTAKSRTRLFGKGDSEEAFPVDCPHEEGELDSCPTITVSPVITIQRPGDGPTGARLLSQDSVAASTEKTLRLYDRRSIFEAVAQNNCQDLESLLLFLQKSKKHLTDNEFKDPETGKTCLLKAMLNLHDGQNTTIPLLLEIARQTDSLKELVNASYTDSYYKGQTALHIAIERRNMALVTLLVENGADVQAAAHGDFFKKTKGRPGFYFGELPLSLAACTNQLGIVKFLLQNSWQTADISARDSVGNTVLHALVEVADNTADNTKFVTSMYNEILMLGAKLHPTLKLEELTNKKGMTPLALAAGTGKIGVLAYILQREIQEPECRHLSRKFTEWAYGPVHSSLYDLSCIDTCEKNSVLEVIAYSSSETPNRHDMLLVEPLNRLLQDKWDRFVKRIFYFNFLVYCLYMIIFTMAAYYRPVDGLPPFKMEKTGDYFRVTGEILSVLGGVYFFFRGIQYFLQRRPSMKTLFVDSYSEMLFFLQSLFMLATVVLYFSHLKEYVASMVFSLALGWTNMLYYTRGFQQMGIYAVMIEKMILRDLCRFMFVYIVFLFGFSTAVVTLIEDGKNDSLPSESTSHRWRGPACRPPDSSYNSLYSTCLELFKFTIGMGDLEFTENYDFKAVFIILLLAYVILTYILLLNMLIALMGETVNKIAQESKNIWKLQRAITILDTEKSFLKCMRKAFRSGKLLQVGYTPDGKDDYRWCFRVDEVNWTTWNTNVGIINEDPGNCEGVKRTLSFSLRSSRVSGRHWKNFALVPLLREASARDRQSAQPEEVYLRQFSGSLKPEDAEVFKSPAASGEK
Sequence of VR1/TRPV1 receptor (Q8NER1 whole entry): as above
T2 sequence (O35433 whole entry): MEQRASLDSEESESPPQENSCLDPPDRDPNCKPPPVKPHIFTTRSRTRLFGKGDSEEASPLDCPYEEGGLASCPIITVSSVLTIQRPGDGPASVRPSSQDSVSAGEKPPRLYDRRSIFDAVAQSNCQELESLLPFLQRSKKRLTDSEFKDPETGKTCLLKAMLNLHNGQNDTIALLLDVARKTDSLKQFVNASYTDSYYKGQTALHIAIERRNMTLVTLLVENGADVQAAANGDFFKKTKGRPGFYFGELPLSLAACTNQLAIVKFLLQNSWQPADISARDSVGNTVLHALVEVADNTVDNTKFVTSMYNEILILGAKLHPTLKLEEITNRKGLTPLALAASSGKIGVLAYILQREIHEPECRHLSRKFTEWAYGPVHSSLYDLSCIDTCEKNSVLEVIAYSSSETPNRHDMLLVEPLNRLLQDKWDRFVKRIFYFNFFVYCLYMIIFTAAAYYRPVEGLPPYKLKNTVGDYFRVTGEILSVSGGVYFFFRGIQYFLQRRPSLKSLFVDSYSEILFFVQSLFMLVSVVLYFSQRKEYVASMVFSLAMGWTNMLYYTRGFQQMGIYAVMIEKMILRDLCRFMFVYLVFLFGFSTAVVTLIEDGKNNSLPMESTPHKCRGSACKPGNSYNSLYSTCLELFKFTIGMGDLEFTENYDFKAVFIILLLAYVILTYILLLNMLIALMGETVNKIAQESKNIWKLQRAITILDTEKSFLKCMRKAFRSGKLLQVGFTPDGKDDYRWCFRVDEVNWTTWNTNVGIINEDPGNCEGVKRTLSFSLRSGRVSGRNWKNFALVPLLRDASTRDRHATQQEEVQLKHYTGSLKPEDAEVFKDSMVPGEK

SMILES	Ki (vanilloid receptor (VR1); [2])	Ki [1, 4]	IC50 (VR1/TRPV1 receptor)	also measured
CC(C(=O)NCc1ccc(C(F)(F)F)nc1N1CCC(CN(C)C)(c2ccccc2)CC1)c1ccc(NS(C)(=O)=O)c(F)c1 (stereo not shown) [Example 259, N-(4-dimethylaminomethyl-4-phenyl-6′-trifluoromethyl-3,4,5,6-tetrahydro-2H-[1,2′]bipyridinyl-3′-ylmethyl)-2-(3-fluoro-4-methylsulfonamido-phenyl)-propionamide]	15.4 nM	22.8 nM		inhibition at 1 µM (VR1/TRPV1 receptor; [3]): 51%; inhibition at 10 µM (VR1/TRPV1 receptor; @ 10 μM, read-out: inhibition in percent, IC50 (human) after pH stimulus): 47%
CC(C(=O)NCc1ccc(C(F)(F)F)nc1CCc1ccccc1)c1ccc(NS(C)(=O)=O)c(F)c1 (stereo not shown) [Example 192, 2-(3-fluoro-4-methylsulfonamido-phenyl)-N-(2-phenethyl-6-trifluoromethyl-pyridin-3-ylmethyl)-propionamide]	1.4 nM	2.4 nM	47 nM	
CC(C(=O)NCc1ccc(C(F)(F)F)nc1N1CCCC1)c1ccc(NS(C)(=O)=O)c(Cl)c1 (stereo not shown) [Example 65, 2-(3-chloro-4-(methylsulfonamido)phenyl)-N-((2-(pyrrolidin-1-yl)-6-(trifluoromethyl)pyridin-3-yl)methyl)propanamide]				Ki (vanilloid receptor (VR1); [5]): 4.2 nM; Ki [1, 6]: 36.5 nM
CC(C(=O)NCc1ccc(C(F)(F)F)nc1OC1Cc2ccccc2C1)c1ccc(NS(C)(=O)=O)c(F)c1 (stereo not shown) [Example 245, 2-(3-fluoro-4-methylsulfonamido-phenyl)-N-[2-(indan-2-yloxy)-6-trifluoromethyl-pyridin-3-ylmethyl]-propionamide]	2.7 nM			inhibition at 0.1 µM (VR1/TRPV1 receptor; [3]): 21%; inhibition at 1 µM (VR1/TRPV1 receptor; [3]): 74%; Ki [1, 7]: 1.7 nM
COCC1CCN(c2nc(C(F)(F)F)ccc2CNC(=O)C(C)c2ccc(NS(C)(=O)=O)c(F)c2)CC1 (stereo not shown) [Example 199, 2-(3-fluoro-4-methylsulfonamido-phenyl)-N-(4-methoxymethyl-6′-trifluoromethyl-3,4,5,6-tetrahydro-2H-[1,2′]bipyridinyl-3′-ylmethyl)-propionamide]	1.4 nM	1.6 nM	31 nM	
CC(C(=O)NCc1ccc(C(F)(F)F)nc1N1CCC(C)(C)CC1)c1ccc(NS(C)(=O)=O)c(F)c1 (stereo not shown) [Example 210, N-(4,4-dimethyl-6′-trifluoromethyl-3,4,5,6-tetrahydro-2H-[1,2′]bipyridinyl-3′-ylmethyl)-2-(3-fluoro-4-methylsulfonamido-phenyl)-propionamide]	0.3 nM	0.2 nM	8 nM	
CC(C(=O)NCc1ccc(C(F)(F)F)nc1N1CCN(C)CC1)c1ccc(NS(C)(=O)=O)c(F)c1 (stereo not shown) [Example 134, 2-(3-fluoro-4-methylsulfonamido-phenyl)-N-[2-(4-methyl-piperazin-1-yl)-6-trifluoromethyl-pyridin-3-ylmethyl]-propionamide]	146 nM	335 nM		inhibition at 25 µM (VR1/TRPV1 receptor; @ 25 μM, read-out: inhibition in percent, IC50 (human) after pH stimulus): 69%
CC(C(=O)NCc1ccc(C(F)(F)F)nc1N1CCNCC1)c1ccc(NS(C)(=O)=O)c(F)c1 (stereo not shown) [Example 74]				inhibition in percent, Ki (human) Cap. (vanilloid receptor (VR1); @ 10 μM): 71% @ 10 μM; inhibition in percent, IC50 (human) after pH stimulus (VR1/TRPV1 receptor; @ 10 μM): 35% @ 10 μM; inhibition in percent, Ki (rat) Cap. ([1]; @ 10 μM): 70% @ 10 μM
CC(C(=O)NCc1ccc(C(F)(F)F)cc1OC1CCCCC1)c1ccc(NS(C)(=O)=O)c(F)c1 (stereo not shown) [Example 238, N-(2-cyclohexyloxy-4-trifluoromethyl-benzyl)-2-(3-fluoro-4-methylsulfonamido-phenyl)-propionamide]	0.7 nM	0.6 nM		inhibition at 0.1 µM (VR1/TRPV1 receptor; [3]): 39%; inhibition at 1 µM (VR1/TRPV1 receptor; [3]): 55%
CCOC(=O)C1(c2ccccc2)CCN(c2nc(C(F)(F)F)ccc2CNC(=O)C(C)c2ccc(NS(C)(=O)=O)c(F)c2)CC1 (stereo not shown) [Example 189, 3′-{[2-(3-fluoro-4-methylsulfonamido-phenyl)-propionylamino]-methyl}-4-phenyl-6′-trifluoromethyl-3,4,5,6-tetrahydro-2H-[1,2′]bipyridinyl-4-carbonic acid ethyl ester]			166 nM	Ki (vanilloid receptor (VR1)): 4.7 nM; Ki [1, 7]: 3 nM
CCOC1CCN(c2nc(C(F)(F)F)ccc2CNC(=O)C(C)c2ccc(NS(C)(=O)=O)c(F)c2)CC1 (stereo not shown) [Example 228, N-(4-ethoxy-6′-trifluoromethyl-3,4,5,6-tetrahydro-2H-[1,2′]bipyridinyl-3′-ylmethyl)-2-(3-fluoro-4-methylsulfonamido-phenyl)-propionamide]	1.3 nM	2.5 nM	612 nM	
CC(C(=O)NCc1ccc(C(F)(F)F)nc1N1CCN(c2ncccc2Cl)CC1)c1ccc(NS(C)(=O)=O)c(F)c1 (stereo not shown) [Example 193, N-{2-[4-(3-chloro-pyridin-2-yl)-piperazin-1-yl]-6-trifluoromethyl-pyridin-3-ylmethyl}-2-(3-fluoro-4-methylsulfonamido-phenyl)-propionamide]	2.1 nM	3.2 nM		inhibition at 1 µM (VR1/TRPV1 receptor; [3]): 69%
CC(C(=O)NCc1ccc(C(F)(F)F)cc1N1CCC(C)(C)CC1)c1ccc(NS(C)(=O)=O)c(F)c1 (stereo not shown) [Example 218, N-[2-(4,4-dimethyl-piperidin-1-yl)-4-trifluoromethyl-benzyl]-2-(3-fluoro-4-methylsulfonamido-phenyl)-propionamide]	1.3 nM	0.4 nM	13.8 nM	
CC(C(=O)NCc1ccc(C(F)(F)F)nc1Oc1ccccc1)c1ccc(NS(C)(=O)=O)c(F)c1 (stereo not shown) [Example 198, 2-(3-fluoro-4-methylsulfonamido-phenyl)-N-(2-phenoxy-6-trifluoromethyl-pyridin-3-ylmethyl)-propionamide]	6.4 nM			inhibition at 0.1 µM (VR1/TRPV1 receptor; [3]): 11%; inhibition at 1 µM (VR1/TRPV1 receptor; [3]): 31%; Ki [1, 7]: 0.9 nM
CC(C(=O)NCc1ccc(C(F)(F)F)nc1N1CCCCC1)c1ccc(NS(C)(=O)=O)c(Cl)c1 (stereo not shown) [Example 64, 2-(3-chloro-4-(methylsulfonamido)phenyl)-N-((2-(piperidin-1-yl)-6-(trifluoromethyl)pyridin-3-yl)methyl)propanamide]				Ki (vanilloid receptor (VR1); [5]): 2.3 nM; Ki [1, 6]: 6.3 nM
CC(C(=O)NCc1ccc(C(F)(F)F)cc1N1CCCCC1)c1ccc(NS(C)(=O)=O)c(Cl)c1 (stereo not shown) [Example 66, 2-(3-chloro-4-(methylsulfonamido)phenyl)-N-(2-(piperidin-1-yl)-4-(trifluoromethyl)benzyl)propanamide]				Ki (vanilloid receptor (VR1); [5]): 2.9 nM; Ki [1, 6]: 3.7 nM
CC(C(=O)NCc1ccc(C(F)(F)F)cc1N1CCCC1)c1ccc(NS(C)(=O)=O)c(Br)c1 (stereo not shown) [Example 69, 2-(3-bromo-4-(methylsulfonamido)phenyl)-N-(2-(pyrrolidin-1-yl)-4-(trifluoromethyl)benzyl)propanamide]				Ki (vanilloid receptor (VR1); [5]): 1.7 nM; Ki [1, 6]: 2.4 nM
CC(C(=O)NCc1ccc(C(F)(F)F)nc1N1CCCCC1)c1ccc(NS(C)(=O)=O)c(Br)c1 (stereo not shown) [Example 67, 2-(3-bromo-4-(methylsulfonamido)phenyl)-N-((2-(piperidin-1-yl)-6-(trifluoromethyl)pyridin-3-yl)methyl)propanamide]				Ki (vanilloid receptor (VR1); [5]): 3.2 nM; Ki [1, 6]: 5.1 nM
CC1CC(C)CN(c2nc(C(F)(F)Cl)ccc2CNC(=O)C(C)c2ccc(NS(C)(=O)=O)c(F)c2)C1 (stereo not shown) [Example 187, N-[6′-(chloro-difluoro-methyl)-3,5-dimethyl-3,4,5,6-tetrahydro-2H-[1,2′]bipyridinyl-3′-ylmethyl]-2-(3-fluoro-4-methylsulfonamido-phenyl)-propionamide]		0.5 nM	39.6 nM	
